pIC50: −log10 of the molar value. Structures can show the parent of a compound that is named as a salt.
What follows are molecules tested against T1, Human LOXL2 (Homo sapiens, UniProt Q9Y4K0) (assay: LOXL2 amine oxidase inhibition, peroxidase-coupled Amplex Red assay). Conditions: 30 min preincubation at 37° C., putrescine substrate.
T1 sequence (Q9Y4K0 26-774): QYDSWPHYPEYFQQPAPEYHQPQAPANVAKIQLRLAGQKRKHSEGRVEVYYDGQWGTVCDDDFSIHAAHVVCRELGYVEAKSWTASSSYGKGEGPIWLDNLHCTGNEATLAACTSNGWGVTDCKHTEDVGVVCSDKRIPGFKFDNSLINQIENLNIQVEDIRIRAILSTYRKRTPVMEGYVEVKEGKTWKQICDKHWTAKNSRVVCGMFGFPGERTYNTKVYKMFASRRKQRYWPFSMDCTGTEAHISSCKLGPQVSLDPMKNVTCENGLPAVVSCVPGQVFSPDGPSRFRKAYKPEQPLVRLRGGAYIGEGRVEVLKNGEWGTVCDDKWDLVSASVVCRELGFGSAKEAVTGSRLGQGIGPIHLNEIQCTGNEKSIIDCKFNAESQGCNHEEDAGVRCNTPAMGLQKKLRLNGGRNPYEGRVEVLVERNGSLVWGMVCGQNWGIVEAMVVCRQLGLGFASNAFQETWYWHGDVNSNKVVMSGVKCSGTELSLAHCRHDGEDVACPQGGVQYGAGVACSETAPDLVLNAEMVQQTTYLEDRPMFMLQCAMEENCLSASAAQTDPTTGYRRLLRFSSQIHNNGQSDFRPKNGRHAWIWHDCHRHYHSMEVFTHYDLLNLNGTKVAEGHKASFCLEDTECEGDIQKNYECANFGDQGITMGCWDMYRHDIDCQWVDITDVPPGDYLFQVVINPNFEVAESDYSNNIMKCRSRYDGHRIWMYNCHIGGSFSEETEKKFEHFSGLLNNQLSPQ
Format: biochemical
Text: Method to Determine the Ability of Compounds of the Invention to Inhibit LOX and LOXL1-4 from Different Sources
Lysyl oxidase (LOX) is an extracellular copper dependent enzyme which oxidizes peptidyl lysine and hydroxylysine residues in collagen and lysine residues in elastin to produce peptidyl alpha-aminoadipic-delta-semialdehydes. […] There are five LOX family members; these are LOX, LOXL1, LOXL2, LOXL3 and LOXL4. LOX and LOXL family members can be acquired as recombinant active proteins from commercial sources, or extracted from animal tissues like bovine aorta, tendons, pig skin; or prepared from cell cultures. The inhibitory effects of the compounds of the present invention were tested against the given LOX-LOXL preparation using a high-throughput coupled colorimetric method (Holt A. and Palcic M., A peroxidase-coupled continuous absorbance plate-reader assay for flavin monoamine oxidases, copper-containing amine oxidases and related enzymes. Nat. Protoc. 2006; 1: 2498-2505). The assay was developed using either 384 or 96 well format. Briefly, in a standard 384 well plate assay 25 μL of a dilution of any of the isoenzymes and orthologues in 1.2 M urea, 50 mM sodium borate buffer (pH 8.2) were added into each well in the presence of 1 μM mofegiline and 0.5 mM pargyline (to inhibit SSAO and MAO-B and MAO-A, respectively). Test compounds were dissolved in DMSO and tested in a Concentration Response Curve (CRC) with 11 data points, typically in the micromolar or nanomolar range after incubation with the enzyme for 30 min at 37° C. Twenty five μL of a reaction mixture containing twice the KM concentration of putrescine (Sigma Aldrich, e.g. 20 mM for LOX, or 10 mM for LOXL2 and LOXL3), 120 μM Amplex Red (Sigma Aldrich) and 1.5 U/mL horseradish peroxidase (Sigma Aldrich) prepared in 1.2 M urea, 50 mM sodium borate buffer (pH 8.2) were then added to the corresponding wells. The above volumes were doubled in the case of 96 wells plate. The fluorescence (RFU) was read every 2.5 min for 30 min at a range of temperatures from 37° to 45° C., excitation 565 nm and emission 590 (Optima; BMG labtech). The slope of the kinetics for each well was calculated using MARS data analysis software (BMG labtech) and this value was used to deduce the IC50 value (Dotmatics).

| pIC50 | SMILES |
| --- | --- |
| > 6.00 | Cc1nn(C/C(F)=C/CN)c(C(C)O)c1Cc1ccc(S(=O)(=O)N(C)C)c(Cl)c1 (single isomer, unassigned) [Compound 52, (Z)-4-((1-(4-amino-2-fluorobut-2-en-1-yl)-5-(1-hydroxyethyl)-3-methyl-1H-pyrazol-4-yl)methyl)-2-chloro-N,N-dimethylbenzenesulfonamide hydrochloride] |
| > 6.00 | Cc1nn(C/C(F)=C/CN)c(C(C)O)c1Cc1ccc(S(=O)(=O)N(C)C)c(Cl)c1 (single isomer, unassigned) [Compound 53, (Z)-4-((1-(4-amino-2-fluorobut-2-en-1-yl)-5-(1-hydroxyethyl)-3-methyl-1H-pyrazol-4-yl)methyl)-2-chloro-N,N-dimethylbenzenesulfonamide hydrochloride] |
| > 6.00 | Cc1nn(C/C(F)=C/CN)c(C)c1Cc1ccc(S(C)(=O)=O)c(Cl)c1 [Compound 16, (Z)-4-(4-(3-chloro-4-(methylsulfonyl)benzyl)-3,5-dimethyl-1H-pyrazol-1-yl)-3-fluorobut-2-en-1-amine hydrochloride] |
| > 6.00 | Cc1nn(C/C(F)=C/CN)c(C)c1Cc1ccc(S(=O)(=O)N(C)C)c(OC(F)(F)F)c1 [Compound 17, (Z)-4-((1-(4-amino-2-fluorobut-2-en-1-yl)-3,5-dimethyl-1H-pyrazol-4-yl)methyl)-N,N-dimethyl-2-(trifluoromethoxy)benzenesulfonamide hydrochloride] |
| > 6.00 | Cc1nn(C/C(F)=C/CN)c(C)c1Cc1ccc(S(=O)(=O)N(C)C)c(C(F)(F)F)c1 [Compound 18, (Z)-4-((1-(4-amino-2-fluorobut-2-en-1-yl)-3,5-dimethyl-1H-pyrazol-4-yl)methyl)-N,N-dimethyl-2-(trifluoromethyl)benzenesulfonamide hydrochloride] |
| > 6.00 | Cc1nn(C/C(F)=C/CN)c(C)c1Cc1cc(F)c(S(=O)(=O)N(C)C)cc1F [Compound 19, (Z)-4-((1-(4-amino-2-fluorobut-2-en-1-yl)-3,5-dimethyl-1H-pyrazol-4-yl)methyl)-2,5-difluoro-N,N-dimethylbenzenesulfonamide hydrochloride] |
| > 6.00 | CNS(=O)(=O)c1ccc(Cn2nc(C)c(C/C(F)=C/CN)c2C)c(Cl)c1 [Compound 20, (Z)-4-((4-(4-amino-2-fluorobut-2-en-1-yl)-3,5-dimethyl-1H-pyrazol-1-yl)methyl)-3-chloro-N-methylbenzenesulfonamide hydrochloride] |
| > 6.00 | Cc1nn(Cc2ccc(S(C)(=O)=O)cc2Cl)c(C)c1C/C(F)=C/CN [Compound 21, (Z)-4-(1-(2-chloro-4-(methylsulfonyl)benzyl)-3,5-dimethyl-1H-pyrazol-4-yl)-3-fluorobut-2-en-1-amine hydrochloride] |
| > 6.00 | CNS(=O)(=O)c1ccc(Cn2nc(C)c(C/C(F)=C/CN)c2C)cc1Cl [Compound 22, (Z)-4-((4-(4-amino-2-fluorobut-2-en-1-yl)-3,5-dimethyl-1H-pyrazol-1-yl)methyl)-2-chloro-N-methylbenzenesulfonamide hydrochloride] |

More lines, now with the values behind:

| SMILES | pIC50 |
| --- | --- |
| N#CCCN [BAPN, β-aminopropionitrile, reference compound] | > 6.00 |
| CN(C)S(=O)(=O)c1ccc(-c2cnn(C/C(F)=C/CN)c2)cc1 [Compound 1, (Z)-4-(1-(4-amino-2-fluorobut-2-en-1-yl)-1H-pyrazol-4-yl)-N,N-dimethyl benzenesulfonamide hydrochloride] | > 6.00 |
| Cc1nn(C/C(F)=C/CN)c(C)c1Cc1ccc(S(=O)(=O)N(C)C)cc1 [Compound 2, (Z)-4-((1-(4-amino-2-fluorobut-2-en-1-yl)-3,5-dimethyl-1H-pyrazol-4-yl)methyl)-N,N-dimethylbenzenesulfonamide hydrochloride] | > 6.00 |
| Cc1nn(C/C(F)=C/CN)c(C)c1Cc1ccc(S(=O)(=O)N(C)C)cc1Cl [Compound 3, (Z)-4-((1-(4-amino-2-fluorobut-2-en-1-yl)-3,5-dimethyl-1H-pyrazol-4-yl)methyl)-3-chloro-N,N-dimethylbenzenesulfonamide hydrochloride] | > 6.00 |
| Cc1nn(C/C(F)=C/CN)c(C)c1Cc1ccc(S(C)(=O)=O)cc1 [Compound 4, (Z)-4-(3,5-dimethyl-4-(4-(methylsulfonyl)benzyl)-1H-pyrazol-1-yl)-3-fluorobut-2-en-1-amine hydrochloride] | > 6.00 |
| Cc1nn(C/C(F)=C/CN)c(C)c1Cc1cccc(S(=O)(=O)N(C)C)c1 [Compound 5, (Z)-3-((1-(4-amino-2-fluorobut-2-en-1-yl)-3,5-dimethyl-1H-pyrazol-4-yl)methyl)-N,N-dimethyl benzenesulfonamide hydrochloride] | > 6.00 |
| Cc1nn(C/C(F)=C/CN)c(C)c1Cc1ccc(S(=O)(=O)N2CCOCC2)cc1 [Compound 6, (Z)-4-(3,5-dimethyl-4-(4-(morpholinosulfonyl)benzyl)-1H-pyrazol-1-yl)-3-fluorobut-2-en-1-amine hydrochloride] | > 6.00 |
| Cc1nn(C/C(F)=C/CN)c(C)c1Cc1ccc(S(=O)(=O)N2CCCC2)cc1 [Compound 7, (Z)-4-(3,5-dimethyl-4-(4-(pyrrolidin-1-ylsulfonyl)benzyl)-1H-pyrazol-1-yl)-3-fluorobut-2-en-1-amine hydrochloride] | > 6.00 |
| Cc1nn(C/C(F)=C/CN)c(C)c1Cc1ccc(S(=O)(=O)N(C)C(C)C)cc1 [Compound 8, (Z)-4-((1-(4-amino-2-fluorobut-2-en-1-yl)-3,5-dimethyl-1H-pyrazol-4-yl)methyl)-N-isopropyl-N-methylbenzenesulfonamide hydrochloride] | > 6.00 |
| Cc1nn(C/C(F)=C/CN)c(C)c1Cc1ccc(S(=O)(=O)N(C)C)c2ccccc12 [Compound 9, (Z)-4-((1-(4-amino-2-fluorobut-2-en-1-yl)-3,5-dimethyl-1H-pyrazol-4-yl)methyl)-N,N-dimethyl naphthalene-1-sulfonamide hydrochloride] | > 6.00 |
| Cc1nn(Cc2ccc(S(=O)(=O)N(C)C)cc2)c(C)c1C/C(F)=C/CN [Compound 10, (Z)-4-((4-(4-amino-2-fluorobut-2-en-1-yl)-3,5-dimethyl-1H-pyrazol-1-yl)methyl)-N,N-dimethylbenzenesulfonamide hydrochloride] | > 6.00 |
| Cc1nn(C/C(F)=C/CN)c(C)c1Cc1ccc(S(=O)(=O)NC(C)C)cc1 [Compound 11, (Z)-4-((1-(4-amino-2-fluorobut-2-en-1-yl)-3,5-dimethyl-1H-pyrazol-4-yl)methyl)-N-isopropyl benzenesulfonamide hydrochloride] | > 6.00 |
| Cc1nn(C/C(F)=C/CN)c(C)c1Cc1ccc(S(C)(=O)=O)cc1Cl [Compound 12, (Z)-4-(4-(2-chloro-4-(methylsulfonyl)benzyl)-3,5-dimethyl-1H-pyrazol-1-yl)-3-fluorobut-2-en-1-amine hydrochloride] | > 6.00 |
| CCc1nn(C/C(F)=C/CN)c(CC)c1Cc1ccc(S(=O)(=O)N(C)C)cc1 [Compound 13, (Z)-4-((1-(4-amino-2-fluorobut-2-en-1-yl)-3,5-diethyl-1H-pyrazol-4-yl)methyl)-N,N-dimethyl benzenesulfonamide hydrochloride] | > 6.00 |
| Cc1nn(C/C(F)=C/CN)c(C)c1Cc1ccc(C(=O)N(C)C)cc1 [Compound 14, (Z)-4-((1-(4-amino-2-fluorobut-2-en-1-yl)-3,5-dimethyl-1H-pyrazol-4-yl)methyl)-N,N-dimethylbenzamide hydrochloride] | > 5.00 |
